How the values were obtained:
D(3) dopamine receptor = D(3) dopamine receptor (Rattus norvegicus, UniProt P19020); assay: Binding affinity for rat Dopamine receptor D3
[1] = molecular target: T1, Alpha-1D adrenergic receptor (Homo sapiens, UniProt P25100); assay: Binding affinity for human Alpha-1D adrenergic receptor
T1 sequence (P25100 whole entry): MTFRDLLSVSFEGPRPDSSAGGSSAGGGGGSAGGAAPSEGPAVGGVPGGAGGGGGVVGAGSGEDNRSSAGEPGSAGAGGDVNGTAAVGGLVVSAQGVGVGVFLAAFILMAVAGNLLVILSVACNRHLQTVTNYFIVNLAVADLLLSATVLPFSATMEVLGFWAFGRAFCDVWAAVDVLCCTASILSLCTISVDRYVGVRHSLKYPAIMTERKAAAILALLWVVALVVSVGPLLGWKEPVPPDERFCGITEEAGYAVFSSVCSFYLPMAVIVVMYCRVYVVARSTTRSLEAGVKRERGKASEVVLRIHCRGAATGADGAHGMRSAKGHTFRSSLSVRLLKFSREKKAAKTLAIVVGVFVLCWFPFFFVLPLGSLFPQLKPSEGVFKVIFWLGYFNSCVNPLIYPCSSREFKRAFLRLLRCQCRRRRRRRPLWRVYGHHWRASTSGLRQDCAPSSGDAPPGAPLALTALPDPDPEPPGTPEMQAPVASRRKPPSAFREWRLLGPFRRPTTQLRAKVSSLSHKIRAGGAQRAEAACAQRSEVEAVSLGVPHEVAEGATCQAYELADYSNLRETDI

D(2) dopamine receptor = D(2) dopamine receptor (Homo sapiens, UniProt P14416); assay: Binding affinity for human Dopamine receptor D2
[2] = molecular target: T2, Alpha-1B adrenergic receptor (Homo sapiens, UniProt P35368); assay: Binding affinity for human Alpha-1B adrenergic receptor
T2 sequence (P35368 whole entry): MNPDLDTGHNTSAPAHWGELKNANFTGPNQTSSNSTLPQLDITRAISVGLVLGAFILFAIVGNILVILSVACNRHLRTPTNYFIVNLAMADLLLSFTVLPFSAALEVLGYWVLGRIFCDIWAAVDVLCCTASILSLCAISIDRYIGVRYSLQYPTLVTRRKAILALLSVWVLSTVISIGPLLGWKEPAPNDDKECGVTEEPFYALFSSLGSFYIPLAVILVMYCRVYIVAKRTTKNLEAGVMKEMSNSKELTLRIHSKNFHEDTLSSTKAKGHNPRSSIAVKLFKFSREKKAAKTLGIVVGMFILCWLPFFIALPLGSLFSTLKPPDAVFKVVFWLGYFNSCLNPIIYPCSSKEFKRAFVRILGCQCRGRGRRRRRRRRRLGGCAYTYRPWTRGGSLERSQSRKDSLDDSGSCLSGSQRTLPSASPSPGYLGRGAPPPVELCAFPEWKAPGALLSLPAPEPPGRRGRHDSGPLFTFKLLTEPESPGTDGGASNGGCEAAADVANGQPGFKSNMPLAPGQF

[3] = molecular target: T3, Alpha-1A adrenergic receptor (Homo sapiens, UniProt P35348); assay: Binding affinity for human Alpha-1A adrenergic receptor
T3 sequence (P35348 whole entry): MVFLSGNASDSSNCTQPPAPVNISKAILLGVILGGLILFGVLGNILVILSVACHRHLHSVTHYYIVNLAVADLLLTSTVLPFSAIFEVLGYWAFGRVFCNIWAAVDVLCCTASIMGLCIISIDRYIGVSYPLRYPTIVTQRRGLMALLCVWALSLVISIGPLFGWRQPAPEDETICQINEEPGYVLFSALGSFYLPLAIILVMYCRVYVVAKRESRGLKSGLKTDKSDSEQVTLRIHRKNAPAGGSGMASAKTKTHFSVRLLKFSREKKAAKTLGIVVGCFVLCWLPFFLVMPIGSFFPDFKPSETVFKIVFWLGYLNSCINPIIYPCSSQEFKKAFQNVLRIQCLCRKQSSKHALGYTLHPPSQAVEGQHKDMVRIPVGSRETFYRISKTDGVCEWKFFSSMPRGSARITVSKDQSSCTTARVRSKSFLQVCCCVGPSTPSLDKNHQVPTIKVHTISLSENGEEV

[4] = molecular target: T4, 5-hydroxytryptamine receptor 1A (Homo sapiens, UniProt P08908)
T4 sequence (P08908 whole entry): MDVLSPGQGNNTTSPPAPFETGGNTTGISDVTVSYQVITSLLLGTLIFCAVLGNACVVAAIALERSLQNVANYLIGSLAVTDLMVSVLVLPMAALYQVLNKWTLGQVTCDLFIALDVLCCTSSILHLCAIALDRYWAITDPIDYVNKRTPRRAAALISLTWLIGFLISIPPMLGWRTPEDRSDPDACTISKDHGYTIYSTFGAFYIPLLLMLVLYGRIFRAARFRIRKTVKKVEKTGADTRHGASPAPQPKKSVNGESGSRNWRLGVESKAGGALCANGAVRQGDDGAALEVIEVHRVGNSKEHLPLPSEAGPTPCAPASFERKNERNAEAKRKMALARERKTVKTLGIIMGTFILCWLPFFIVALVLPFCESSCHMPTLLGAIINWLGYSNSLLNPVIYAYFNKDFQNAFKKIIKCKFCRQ
Description: Binding affinity for human 5-hydroxytryptamine 1A receptor

Sequence of D(3) dopamine receptor (P19020 whole entry): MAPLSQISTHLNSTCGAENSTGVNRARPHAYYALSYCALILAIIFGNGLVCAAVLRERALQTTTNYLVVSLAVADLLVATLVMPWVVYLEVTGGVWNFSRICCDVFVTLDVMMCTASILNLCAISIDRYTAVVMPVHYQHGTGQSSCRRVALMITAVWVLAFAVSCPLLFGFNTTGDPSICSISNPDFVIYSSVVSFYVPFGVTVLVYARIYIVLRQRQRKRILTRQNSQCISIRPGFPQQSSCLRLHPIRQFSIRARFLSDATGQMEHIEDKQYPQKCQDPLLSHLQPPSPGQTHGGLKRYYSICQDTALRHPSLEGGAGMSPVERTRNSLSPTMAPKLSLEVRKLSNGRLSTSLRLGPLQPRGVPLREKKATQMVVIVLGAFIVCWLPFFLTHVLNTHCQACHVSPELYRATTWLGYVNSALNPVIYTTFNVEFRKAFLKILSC
Sequence of D(2) dopamine receptor (P14416 whole entry): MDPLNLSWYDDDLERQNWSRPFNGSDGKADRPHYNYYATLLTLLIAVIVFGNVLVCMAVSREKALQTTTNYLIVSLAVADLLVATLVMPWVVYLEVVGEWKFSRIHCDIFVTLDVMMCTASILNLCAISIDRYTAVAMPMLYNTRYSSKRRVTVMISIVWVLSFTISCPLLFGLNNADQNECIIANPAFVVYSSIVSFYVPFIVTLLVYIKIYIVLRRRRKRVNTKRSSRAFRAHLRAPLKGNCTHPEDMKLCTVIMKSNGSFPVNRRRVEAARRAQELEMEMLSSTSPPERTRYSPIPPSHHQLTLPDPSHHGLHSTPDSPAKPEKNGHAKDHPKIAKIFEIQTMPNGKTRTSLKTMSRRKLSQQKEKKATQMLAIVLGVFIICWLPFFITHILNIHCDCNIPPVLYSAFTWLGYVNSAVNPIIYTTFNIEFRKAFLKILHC

Structure (SMILES) | Ki (D(3) dopamine receptor) [nM] | Ki [1] [nM] | Ki (D(2) dopamine receptor) [nM] | Ki [2] [nM] | Ki [3] [µM] | Ki [4] [nM]
O=C1CC2(CCCC2)CC(=O)N1CCN1CCN(c2ccccc2F)CC1 | 5.2 |  | 140 | 67 |  | 
C[C@H](CN1CCN(c2cc(F)c(F)cc2F)CC1)N1C(=O)CC2(CCCC2)CC1=O | 120 |  | 580 |  | 14 | 
COc1ccccc1N1CCN(CCN2C(=O)CC3(CCCC3)CC2=O)CC1 [BMY-7378] | 3.1 |  | 14 |  |  | 0.46
C[C@@H](CN1CCN(c2cc(F)c(F)cc2F)CC1)N1C(=O)CC2(CCCC2)CC1=O |  | 124 |  |  |  | 

Now from value to compound:

Ki (D(3) dopamine receptor) [nM] | Ki [1] [nM] | Ki (D(2) dopamine receptor) [nM] | Ki [2] [nM] | Ki [3] [µM] | Ki [4] [nM] | Structure (SMILES)
8.1 | 0.95 | 120 | 54 |  |  | O=C1CC2(CCCC2)CC(=O)N1CCN1CCN(c2cc(F)ccc2F)CC1
 | 5.6 |  | 1100 | 3.8 | 24 | O=C1CC2(CCCC2)CC(=O)N1CCN1CCN(c2ccc(F)cc2F)CC1
91 | 14 | 2200 | 255 | 0.62 | 54 | O=C1CC2(CCCC2)CC(=O)N1CCN1CCN(c2ccc(F)cc2)CC1
23 | 1.9 | 700 | 380 | 4.4 | 360 | O=C1CC2(CCCC2)CC(=O)N1CCN1CCN(c2cc(F)c(F)cc2F)CC1
160 |  | 2200 | 1400 | 4.1 | 55 | O=C1CC2(CCCC2)CC(=O)N1CCN1CCN(c2ccc(F)c(F)c2)CC1
